# Test results as given in patent US7629135B2, “Toll-like receptor agonists and antagonists and methods of use thereof” (The Board of Trustees of the University of Illinois, priority 2006, dated 2009).
# B1: L7A: SAA with Leucine to Alanine mutation at position 7 (protein)
# chain: RSFFSFAGEAFDGARDMWRAYSDMREANYIGSDKYFHARGNYDAAKRGPGGAWAAEVITDARENIQRFFGHGAEDSLADQAANEWGRSGKDPNHFRPAGLPEKY
# What was measured:
# [1] = test system: mouse bone marrow derived macrophages (BMDM); assay: G-CSF secretion in mouse BMDM (ELISA); format: cell-based; conditions: for G-CSF secretion by FPRL1 agonists: 16 h
# Method: SAA induces G-CSF expression in monocytes and macrophages: To determine whether SAA plays a role in neutrophilia, the ability of SAA to stimulate G-CSF expression was investigated. Human peripheral blood monocytes (PBMC) were incubated with SAA, and the concentration of secreted G-CSF in the culture medium was determined at various time points after stimulation. The concentration of SAA used in this experiment (1 μM) was well within its physiological range (0.08 μM to 80 μM). […] Since subsequent studies used mice for measurement of G-CSF secretion and neutrophilia, SAA-induced G-CSF expression in mouse bone marrow derived macrophages (BMDM) was determined, of which 98% were F4/80^+ CD14^+ based on flow cytometry analysis. […] The basal level of G-CSF remained stable at approximately 42 pg/ml/10^6 cells over the entire course of incubation.
# It was next determined whether induction of G-CSF expression was a primary function of SAA or resulted from contaminating LPS in the SAA preparation. The LPS concentration in the recombinant SAA preparation was ≦0.1 ng/μg protein, translating into ≦1.14 ng/ml LPS in a typical experiment with 1 μM SAA. LPS at this or 10-fold higher concentrations was tested for its effect on the expression of G-CSF. […] Given that most proteins are heat labile while LPS is heat resistant, the ability of heat-treated SAA (1 μM) and LPS (1 μg/ml) to stimulate G-CSF secretion in mouse BMDM was examined. After boiling for 25 min, LPS retained its ability to induce G-CSF production by ˜83%. […] In parallel experiments, polymyxin B, an amphiphilic cyclic polycationic peptide that specifically binds to LPS and blocks the cytokine-inducing effect of LPS (Stokes et al., 1989), was used to treat SAA or LPS prior to incubation with BMDM. […] Under the same experimental conditions, polymyxin B reduced LPS-stimulated G-CSF secretion by more than 70%.
# It was previously shown that FPRL1 is involved in SAA-induced IL-8 production in human neutrophils (He et al., 2003). It has also been shown that SAA binds to FPRL1 and stimulates the production of matrix metalloproteinase (O'Hara et al., 2004). […] A role of TLR2 in SAA-stimulated G-CSF expression was examined.
# Cell preparation and culture: Human peripheral blood monocytes were prepared from fresh, heparinized venous blood by Ficoll-Hypaque density-gradient centrifugation. Blood drawing followed a protocol approved by the Institutional Review Board at the University of Illinois at Chicago. Purified monocytes (>93% CD14^+ by flow cytometry) were kept in nonadherent condition in RPMI 1640 containing 0.5% FBS and maintained at 37° C. Mouse macrophages were differentiated from bone marrow cells. Mouse bone marrow cells were aspirated from the femurs of 8-12-week-old mice and cultured at 37° C. in 5% CO2 in RPMI 1640 medium containing 10% FBS, 15% L-cell conditional medium, 10 mM HEPES, 2 mM L-glutamine, 100 IU/ml penicillin, and 50 μg/ml streptomycin. The medium was changed every three days. Macrophages (about 98% F4/80+ by flow cytometry) were obtained after 7 days of culture. The mouse macrophage cell line RAW264.7 cells were maintained in DMEM medium supplemented with 10% FBS, 10 mM HEPES, 2 mM L-glutamine, 100 IU/ml penicillin, and 50 μg/ml streptomycin. TLR2-HeLa cells were generated by transfection of HeLa cell with the expression construct pUNO-hTLR2 (InvivoGen). Stable transfectants were selected with Blasticidin at 20 μg/ml for 2 weeks. Mock-transfected HeLa cells were generated similarly, with a pUNO empty vector. Cells were maintained in DMEM supplemented with 10% heat-inactivated FBS, 2 mM L-glutamine, 100 IU/ml penicillin, and 50 μg/ml streptomycin. Expression of TLR2 was confirmed using an anti-TLR2 antibody (eBioscience) and FTTC-conjugated anti-mouse antibody, on a FACSCalibur flow cytometer (Becton Dickinson). FIGS. 12 and 13 are plasmid maps of pUNO-hTLR2 and pNF-κB-Luc, respectively. […]
# [2] = test system: RelA/p65 binding to the CK-1 site of the G-CSF promoter; assay: Chromatin immunoprecipitation (ChIP) assay in RAW264.7 cells; format: cell-based, mouse; conditions: SAA 1 μM or TNFα 50 ng/ml
# Method: To investigate the mechanism for SAA-induced G-CSF production, the level of G-CSF transcript in SAA-stimulated BMDM was determined. […] The induction of G-CSF transcript peaked at 4 h after SAA stimulation. Since transcription of the G-CSF gene involves NF-κB binding to the RelA/p65 consensus element in the CK-1 site of the G-CSF promoter (Dunn et al., 1994; Hareng and Hartung, 2002), the role of NF-κB in SAA-stimulated G-CSF expression was determined. […] Using oligonucleotide probe based on the sequence of the CK-1 site (−161 to −152 in the G-CSF promoter), a protein •DNA complex (FIG. 2C) was identified. […] Inclusion of a RelA/p65 antibody blocking peptide in the assay abrogated the immunoprecipitation (FIG. 2D).
# ChIP assay: Reagents were obtained from Upstate Biotechnology, and ChIP assay was performed as per manufacturers specifications with minor modifications. Briefly, a total of 1×10^7 RAW264.7 cells were harvested and resuspended in a serum-free DMEM medium absence or presence of 1 μM SAA, or 50 ng/ml of TNFα, and incubated for 30 or 60 min at 37° C. Following stimulation, cells were crosslinked and then washed and resuspended in SDS-lysis buffer, and were sonicated (4 times for 10 s each, with a setting at ‘4’ on a Fisher Sonic 60 dismembrenator). […] The PCR products were analyzed on a 2.5% agarose gel.
# TLR2 = target: T1, TLR2 (Homo sapiens, UniProt O60603); assay: NF-κB luciferase reporter assay in TLR2-HeLa cells; format: cell-based; conditions: HDL preincubation
# T1 construct: host or cells: HeLa
# Method: To determine whether TLR2 is a receptor for SAA, a TLR2-expressing cell line was prepared in HeLa cells, which contain very little endogenous TLR2 transcript (FIG. 6A, upper panel). […] TLR2 is a class I transmembrane protein that contains an extracellular ligand binding domain (ectodomain), a transmembrane domain and a cytoplasmic domain consisting of the Toll/IL-1/receptor/Resistance (TIR) motif. Studies have shown that TLR2 forms heterodimers with TLR1 and TLR6 (Ozinsky et al., 2000), which display different preference for TLR2 ligands (Hoebe et al., 2005; Takeuchi et al., 2002). The C-terminal TIR domain is conserved among TLRs and responsible for TLR signaling (O'Neill and Bowie, 2007; Takeda and Akira, 2004). To assess the relative contributions of TLRs to SAA signaling, TLR1, TLR2, TLR4 and TLR6 were overexpressed in the TLR2-HeLa cells, and their effects on SAA-induced NF-κB luciferase reporter activity were determined. […] In addition, the TIR domain deletion mutants (ΔTIR) of these receptors were expressed, which are negative regulators of TLR signaling.
# Methods for the generation of TLR2-HeLa stable cell line: HeLa cells stably transfected with human TLR2 gene were generated by transfecting HeLa cells with the expression construct pUNO-hTLR2 (InvivoGen, San Diego, Calif.; GenBank accession number for human TLR2 cDNA is NM_003264) and selected with Blasticidin at concentration of 20 μg/ml for 2 weeks. The control HeLa cells were generated at the same time by transfecting with empty pUNO vector. Cells were maintained in DMEM supplemented with 10% heat-inactivated FB S, 2 mM L-glutamine, 100 IU/ml penicillin, and 50 μg/ml streptomycin. Expression of TLR2 was confirmed using an anti-TLR2 antibody (eBioscience) and FTTC-conjugated anti-mouse antibody, on a FACSCalibur flow cytometer (Becton Dickinson). The TLR2-HeLa and control cells were then co-transfected with 5xNF-κB reporter plasmids (pNF-κB-Luc, Stratagene, Cedar Creek, Tex., catalog no. 219077) and empty SFFV vector bearing a neomycin resistant gene. The TLR2-HeLa/NF-κB reporting cells were obtained after selecting with G418 at concentration of […] for 2-3 weeks. Cells (5′10^5/ml) were grown in DMEM supplemented with 10% heat-inactivated FBS, 2 mM L-glutamine, 100 IU/ml penicillin, and […] streptomycin.
# Methods for using HeLa cells in reporter assay: Mock-transfected HeLa and TLR2-HeLa cells were maintained at ˜5×10^5 cells/well in six-well plates, transfected with plasmid expression vectors coding for a 3×κB-directed luciferase reporter, pCMVβ vector DNA (Promega) and/or other expression constructs as indicated. Total DNA concentration was adjusted to 1 μg/sample by addition of empty vector DNA. Transient transfection was performed using LipofectAmine Plus reagent (Invitrogen). […]
# T1 sequence (O60603 21-784): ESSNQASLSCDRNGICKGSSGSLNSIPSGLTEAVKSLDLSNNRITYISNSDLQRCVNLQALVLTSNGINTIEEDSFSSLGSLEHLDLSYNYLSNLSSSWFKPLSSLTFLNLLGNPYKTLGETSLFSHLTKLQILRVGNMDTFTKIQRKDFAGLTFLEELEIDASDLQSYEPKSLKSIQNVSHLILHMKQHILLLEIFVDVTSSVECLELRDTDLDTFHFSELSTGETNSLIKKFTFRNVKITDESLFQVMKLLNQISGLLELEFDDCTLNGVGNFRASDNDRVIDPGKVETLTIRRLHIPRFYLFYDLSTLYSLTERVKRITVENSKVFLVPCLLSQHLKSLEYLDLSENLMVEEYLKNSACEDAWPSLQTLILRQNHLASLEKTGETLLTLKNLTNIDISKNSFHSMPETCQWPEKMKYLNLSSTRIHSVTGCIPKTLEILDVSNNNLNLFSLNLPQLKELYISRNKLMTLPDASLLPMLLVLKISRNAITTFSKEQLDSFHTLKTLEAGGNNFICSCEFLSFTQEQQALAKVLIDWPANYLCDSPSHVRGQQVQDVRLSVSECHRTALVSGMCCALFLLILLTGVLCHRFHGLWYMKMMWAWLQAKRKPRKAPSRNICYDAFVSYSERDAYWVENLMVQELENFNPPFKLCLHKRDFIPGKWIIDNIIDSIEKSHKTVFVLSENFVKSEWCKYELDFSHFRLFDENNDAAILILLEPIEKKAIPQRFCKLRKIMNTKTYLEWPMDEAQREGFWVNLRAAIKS
# T1 sequence (Q15399 25-786 partner): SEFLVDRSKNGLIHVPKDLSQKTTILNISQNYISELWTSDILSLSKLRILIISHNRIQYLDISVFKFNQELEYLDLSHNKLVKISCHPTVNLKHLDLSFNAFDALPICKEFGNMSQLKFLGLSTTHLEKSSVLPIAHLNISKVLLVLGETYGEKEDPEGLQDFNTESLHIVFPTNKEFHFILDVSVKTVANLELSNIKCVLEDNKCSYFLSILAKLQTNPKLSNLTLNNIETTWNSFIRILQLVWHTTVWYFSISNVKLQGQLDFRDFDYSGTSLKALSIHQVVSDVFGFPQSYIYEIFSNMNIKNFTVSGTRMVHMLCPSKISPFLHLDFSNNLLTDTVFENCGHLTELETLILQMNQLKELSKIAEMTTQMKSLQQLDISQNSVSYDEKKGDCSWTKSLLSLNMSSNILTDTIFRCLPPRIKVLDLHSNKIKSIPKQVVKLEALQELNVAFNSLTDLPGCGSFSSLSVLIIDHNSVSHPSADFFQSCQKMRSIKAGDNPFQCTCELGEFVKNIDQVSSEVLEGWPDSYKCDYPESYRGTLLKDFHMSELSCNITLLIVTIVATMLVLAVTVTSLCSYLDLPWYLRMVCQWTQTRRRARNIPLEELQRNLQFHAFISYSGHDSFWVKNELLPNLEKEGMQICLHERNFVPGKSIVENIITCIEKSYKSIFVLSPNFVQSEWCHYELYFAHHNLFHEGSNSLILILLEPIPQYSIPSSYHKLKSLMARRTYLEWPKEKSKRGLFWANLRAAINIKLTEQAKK
molecule,measurement,setting,value
"LESIFRSLLFRVM [MMK-1, reference compound]",G-CSF secretion by FPRL1 agonists,[1]; BMDM,unable to stimulate G-CSF secretion
Polymyxin B [reference compound],reduction of LPS-stimulated G-CSF secretion,"[1]; polymyxin B 50 μg/ml pretreatment of LPS 1 μg/ml, BMDM",more than 70%
same,effect on potency of SAA in stimulating G-CSF expression,"[1]; polymyxin B 50 μg/ml pretreatment of SAA, BMDM",minimal effect
TNFα [reference compound],pull-down of CK-1 DNA fragment by anti-RelA/p65 antibody,[2],able to pull-down the CK-1 DNA fragment
WKYMVm [reference compound],G-CSF secretion by FPRL1 agonists,[1]; BMDM,unable to stimulate G-CSF secretion
pertussis toxin [reference compound],inhibition of SAA-induced G-CSF secretion,"[1]; BMDM pretreated overnight with pertussis toxin up to 200 ng/ml, then SAA 16 h",no significant inhibition
B1,effect of L7A mutation of SAA on the reduction by HDL of NF-κB activation,TLR2,partially reversed the reduction effect by HDL
